Where a name gives a salt, the structure may show the parent alone.
Target: T1, mGlyT-1b (Mus musculus, UniProt P28571)
T1 construct: host or cells: Flp-in-CHO
T1 sequence (P28571 1-651 isoform P28571-2): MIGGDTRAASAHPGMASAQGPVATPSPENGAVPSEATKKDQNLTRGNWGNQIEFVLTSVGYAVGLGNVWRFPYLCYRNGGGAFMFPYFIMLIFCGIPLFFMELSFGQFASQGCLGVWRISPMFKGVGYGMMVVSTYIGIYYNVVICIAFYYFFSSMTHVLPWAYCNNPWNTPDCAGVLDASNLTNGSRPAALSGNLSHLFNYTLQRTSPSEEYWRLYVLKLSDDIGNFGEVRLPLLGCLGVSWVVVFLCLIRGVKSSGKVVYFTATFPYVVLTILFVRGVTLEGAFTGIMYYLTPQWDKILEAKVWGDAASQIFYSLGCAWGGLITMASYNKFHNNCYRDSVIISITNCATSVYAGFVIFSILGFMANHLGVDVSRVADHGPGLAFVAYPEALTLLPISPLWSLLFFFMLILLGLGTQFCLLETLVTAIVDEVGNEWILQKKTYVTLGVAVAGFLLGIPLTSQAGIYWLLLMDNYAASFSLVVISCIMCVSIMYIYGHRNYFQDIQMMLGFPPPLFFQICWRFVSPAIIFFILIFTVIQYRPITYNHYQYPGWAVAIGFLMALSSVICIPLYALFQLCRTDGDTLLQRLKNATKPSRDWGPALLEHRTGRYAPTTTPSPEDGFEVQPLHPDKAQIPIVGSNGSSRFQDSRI
Assay: Glycine uptake inhibition assay (mGlyT-1b), [3H]-glycine uptake in transfected Flp-in-CHO cells
Type: cell-based
Settings: Flp-in-CHO cells transfected with mGlyT-1b cDNA; [3H]-glycine 60 nM and 25 μM non-radioactive glycine; 20 min preincubation at 22° C.; read-out: IC50 (μM) at GlyT-1; Ic50 (hglyt1b)
How it was run: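 Flp-in CHO cells stably expressing mouse GlyT-1b were preincubated 20 min at 22 °C with inhibitor in pH 7.4 Hepes-Tris buffer. Uptake was then run with 60 nM [3H]-glycine plus 25 μM unlabeled glycine, with 10 mM glycine defining nonspecific uptake. Cell radioactivity was counted by scintillation to derive IC50.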

Row | IC50 | Compound
1 | 0.047 µM | CS(=O)(=O)c1cncc(-c2ccc([C@@H](O)[C@@H](N)c3ccc(Cl)c(Cl)c3)cc2)c1 (racemic) [Example 82, rac-erythro-2-Amino-2-(3,4-dichloro-phenyl)-1-[4-(5-methanesulfonyl-pyridin-3-yl)-phenyl]-ethanol]
2 | 0.059 µM | N[C@@H](c1ccc(Cl)c(Cl)c1)[C@H](O)c1ccc(-c2cncc(F)c2)cc1 (racemic) [Example 83, rac-erythro-2-Amino-2-(3,4-dichloro-phenyl)-1-[4-(5-fluoro-pyridin-3-yl)-phenyl]-ethanol]
3 | 0.033 µM | N[C@@H](c1ccc(Cl)c(F)c1)[C@H](O)c1ccc(-c2cccnc2)cc1 (racemic) [Example 84]
4 | 0.095 µM | N[C@@H](c1ccc(Cl)c(F)c1)[C@H](O)c1ccc(-c2cncc(F)c2)cc1 (racemic) [Example 85, rac-erythro-2-Amino-2-(4-chloro-3-fluoro-phenyl)-1-[4-(5-fluoro-pyridin-3-yl)-phenyl]-ethanol]
5 | 0.049 µM | Cc1cc([C@H](N)[C@H](O)c2ccc(-c3cccnc3)cc2)ccc1Cl (racemic) [Example 86, rac-erythro-2-Amino-2-(4-chloro-3-methyl-phenyl)-1-(4-pyridin-3-yl-phenyl)-ethanol]
6 | 0.255 µM | N[C@@H](c1ccc(C(F)(F)F)cc1)[C@H](O)c1ccc(-c2cccnc2)cc1 (racemic) [Example 88, rac-erythro-2-Amino-1-(4-pyridin-3-yl-phenyl)-2-(4-trifluoromethyl-phenyl)-ethanol]
7 | 0.305 µM | CN(C)c1cccc(-c2ccc([C@@H](O)[C@@H](N)c3ccc(Cl)c(Cl)c3)cc2)c1 (racemic) [Example 89, rac-erythro-2-Amino-2-(3,4-dichloro-phenyl)-1-(3′-dimethylamino-biphenyl-4-yl)-ethanol]
8 | 0.073 µM | Cc1ccc([C@H](N)[C@H](O)c2ccc(-c3cccnc3)cc2)cc1F (racemic) [Example 91, rac-erythro-2-Amino-2-(3-fluoro-4-methyl-phenyl)-1-(4-pyridin-3-yl-phenyl)-ethanol]
9 | 0.084 µM | Cc1ccc([C@H](N)[C@H](O)c2ccc(-c3cccnc3)cc2)cc1Cl (racemic) [Example 92, rac-erythro-2-Amino-2-(3-chloro-4-methyl-phenyl)-1-(4-pyridin-3-yl-phenyl)-ethanol]
10 | 0.094 µM | Cc1ccc([C@H](N)[C@H](O)c2ccc(-c3cncc(F)c3)cc2)cc1Cl (racemic) [Example 93, rac-erythro-2-Amino-2-(3-chloro-4-methyl-phenyl)-1-[4-(5-fluoro-pyridin-3-yl)-phenyl]-ethanol]
11 | 0.104 µM | Cc1ccc([C@H](N)[C@H](O)c2ccc(-c3cncc(F)c3)cc2)cc1F (racemic) [Example 94, rac-erythro-2-Amino-2-(3-fluoro-4-methyl-phenyl)-1-[4-(5-fluoro-pyridin-3-yl)-phenyl]-ethanol]
12 | 0.158 µM | N[C@@H](c1ccc(C(F)(F)F)c(F)c1)[C@H](O)c1ccc(-c2cccnc2)cc1 (racemic) [Example 95, rac-erythro-2-Amino-2-(3-fluoro-4-trifluoromethyl-phenyl)-1-(4-pyridin-3-yl-phenyl)-ethanol]
13 | 0.733 µM | N[C@@H](c1ccc(C(F)(F)F)c(F)c1)[C@H](O)c1ccc(-c2cncc(F)c2)cc1 (racemic) [Example 96, rac-erythro-2-Amino-1-[4-(5-fluoro-pyridin-3-yl)-phenyl]-2-(3-fluoro-4-trifluoromethyl-phenyl)-ethanol]
14 | 0.267 µM | N[C@@H](c1ccc(Cl)cc1F)[C@H](O)c1ccc(-c2cccnc2)cc1 (racemic) [Example 97, rac-erythro-2-Amino-2-(4-chloro-2-fluoro-phenyl)-1-(4-pyridin-3-yl-phenyl)-ethanol]
15 | 0.388 µM | CO[C@H](c1ccc(-c2cccnc2)cc1)[C@@H](N)c1ccc(Cl)c(Cl)c1 (racemic) [Example 98, rac-erythro-1-(3,4-Dichloro-phenyl)-2-methoxy-2-(4-pyridin-3-yl-phenyl)-ethylamine dihydrochloride]
16 | 0.285 µM | CCO[C@H](c1ccc(-c2cncc(F)c2)cc1)[C@@H](N)c1ccc(Cl)c(Cl)c1 (racemic) [Example 99, rac-erythro-[1-(3,4-Dichloro-phenyl)-2-ethoxy-2-[4-(5-fluoro-pyridin-3-yl)-phenyl]-ethylamine trifluoroacetate]
17 | 0.323 µM | N[C@@H](c1ccc(Cl)c(Cl)c1)[C@H](O)c1ccc(Oc2ccccc2)cc1 (racemic) [Example 100, rac-erythro-2-Amino-2-(3,4-dichloro-phenyl)-1-(4-phenoxy-phenyl)-ethanol]
18 | 0.412 µM | N[C@@H](c1ccc(Cl)c(Cl)c1)[C@H](O)c1ccc(-c2cccc([N+](=O)[O-])c2)cc1 (racemic) [Example 103, rac-erythro-2-Amino-2-(3,4-dichloro-phenyl)-1-(3′-nitro-biphenyl-4-yl)-ethanol]
19 | 0.056 µM | NC(=O)c1cccc(-c2ccc([C@@H](O)[C@@H](N)c3ccc(Cl)c(Cl)c3)cc2)c1 (racemic) [Example 104, rac-erythro-4′-[2-Amino-2-(3,4-dichloro-phenyl)-1-hydroxy-ethyl]-biphenyl-3-carboxylic acid amide]
20 | 0.567 µM | CC(C)Oc1ccc(F)c(-c2ccc([C@@H](O)[C@@H](N)c3ccc(Cl)c(Cl)c3)cc2)c1 (racemic) [Example 105, rac-erythro-2-Amino-2-(3,4-dichloro-phenyl)-1-(2′-fluoro-5′-isopropoxy-biphenyl-4-yl)-ethanol]
21 | 0.851 µM | CC(C)Oc1cccc(-c2ccc([C@@H](O)[C@@H](N)c3ccc(Cl)c(Cl)c3)cc2)c1 (racemic) [Example 106, rac-erythro-2-Amino-2-(3,4-dichloro-phenyl)-1-(3′-isopropoxy-biphenyl-4-yl)-ethanol]
22 | 0.012 µM | CS(=O)(=O)c1cccc(-c2ccc([C@@H](O)[C@@H](N)c3ccc(Cl)c(Cl)c3)c(F)c2)c1 (single isomer, unassigned) [Example 6, (1R,2S or 1S,2R)-2-Amino-2-(3,4-dichloro-phenyl)-1-(3-fluoro-3′-methanesulfonyl-biphenyl-4-yl)-ethanol hydrochloride]
23 | 0.059 µM | N[C@@H](c1ccc(Cl)c(Cl)c1)[C@H](O)c1ccc(-c2cncc(F)c2)cc1 (single isomer, unassigned) [Example 8, (1R,2S or 1S,2R)-2-Amino-2-(3,4-dichloro-phenyl)-1-[4-(5-fluoro-pyridin-3-yl)-phenyl]-ethanol trifluoroacetate]

Row | Compound | IC50
24 | N[C@@H](c1ccc(Cl)cc1)[C@H](O)c1ccc(OCC(F)(F)C(F)(F)F)cc1F (racemic) [Example 101, rac-erythro-2-Amino-2-(4-chloro-phenyl)-1-[2-fluoro-4-(2,2,3,3,3-pentafluoro-propoxy)-phenyl]-ethanol] | 0.334 µM
25 | CC(Oc1ccc([C@@H](O)[C@@H](N)c2ccc(Cl)cc2)cc1)C(F)(F)F (mixture of isomers) [Example 102, rac-erythro-2-Amino-2-(4-chloro-phenyl)-1-[4-(2,2,2-trifluoro-1-methyl-ethoxy)-phenyl]-ethanol] | 0.384 µM
26 | N[C@@H](c1ccc(Cl)c(Cl)c1)[C@H](O)c1ccc(OC2CCOCC2)cc1 (single isomer, unassigned) [Example 41, (1R,2S or 1S,2R)-[2-Amino-2-(3,4-dichloro-phenyl)-1-[4-(tetrahydro-pyran-4-yloxy)-phenyl]-ethanol] | 0.021 µM

From US8367838B2, “Amines or amino alcohols as GLYT1 inhibitors” (Hoffmann-La Roche Inc., priority 2009, dated 2013)
